Data on 8 molecules can be found in patent publication EP4800004A1, “ARYLALKYLAMINE COMPOUND, AND PREPARATION METHOD THEREFOR AND USE THEREOF” (Renhe Yikang Group Co., Ltd., priority 2024, dated 2025).

Series [1] concerns the target T1, human CaSR (Homo sapiens, UniProt P41180).
T1 construct: expressed in transfected cells
T1 sequence (P41180 20-1078): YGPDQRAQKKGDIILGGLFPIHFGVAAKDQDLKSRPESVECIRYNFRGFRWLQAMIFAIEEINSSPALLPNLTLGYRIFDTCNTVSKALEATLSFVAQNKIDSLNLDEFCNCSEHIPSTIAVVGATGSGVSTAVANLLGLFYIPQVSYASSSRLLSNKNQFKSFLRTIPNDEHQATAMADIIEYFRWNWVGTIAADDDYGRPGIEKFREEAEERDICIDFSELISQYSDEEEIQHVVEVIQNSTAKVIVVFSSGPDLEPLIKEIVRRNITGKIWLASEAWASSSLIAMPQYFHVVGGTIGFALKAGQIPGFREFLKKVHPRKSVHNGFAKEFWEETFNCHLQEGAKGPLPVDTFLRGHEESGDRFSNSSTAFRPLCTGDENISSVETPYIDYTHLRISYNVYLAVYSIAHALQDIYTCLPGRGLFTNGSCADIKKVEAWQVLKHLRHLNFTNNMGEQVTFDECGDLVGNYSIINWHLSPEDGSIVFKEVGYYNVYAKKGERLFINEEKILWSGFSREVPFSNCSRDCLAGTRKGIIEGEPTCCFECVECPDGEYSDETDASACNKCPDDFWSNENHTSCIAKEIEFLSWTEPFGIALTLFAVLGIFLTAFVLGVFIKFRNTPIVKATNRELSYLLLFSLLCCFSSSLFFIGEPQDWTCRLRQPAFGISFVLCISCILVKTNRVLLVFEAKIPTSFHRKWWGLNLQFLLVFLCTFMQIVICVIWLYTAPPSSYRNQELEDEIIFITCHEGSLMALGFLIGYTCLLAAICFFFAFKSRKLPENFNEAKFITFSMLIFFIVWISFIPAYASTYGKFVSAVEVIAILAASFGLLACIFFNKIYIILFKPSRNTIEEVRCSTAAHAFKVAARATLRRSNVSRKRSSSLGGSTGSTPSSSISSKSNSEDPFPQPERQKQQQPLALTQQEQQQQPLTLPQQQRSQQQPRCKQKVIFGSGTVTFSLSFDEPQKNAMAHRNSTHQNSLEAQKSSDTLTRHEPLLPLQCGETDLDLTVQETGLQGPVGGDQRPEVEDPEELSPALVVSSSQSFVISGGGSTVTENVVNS
Nature of the series: In vitro CaSR conformational (allosteric) activation, intracellular Ca2+ change in hCaSR-CHO cells (Fluo-4 NW, FLIPR). Format: cell-based. The settings on record: change in intracellular Ca2+ fluorescence intensity. The protocol: The CaSR is a member of family C of G protein-coupled receptors (GPCR). Upon activation by extracellular Ca^2+ or specific compounds, CaSR triggers an increase in intracellular Ca^2+ concentration. To evaluate the effect of compounds on the allosteric activation of CaSR, a CHO cell line stably transfected with human CaSR (hCaSR-CHO) was utilized. Changes in intracellular Ca^2+ concentration were measured as a key indicator to assess the conformational activation of CaSR.
• 1. Preparation Before Plate Spreading: Twelve hours prior to cell spreading, a 384-well cell culture plate was coated with 0.1 mg/mL polylysine. • 2. Cell Spreading: Digested hCaSR-CHO cells were resuspended in complete medium, counted using a cell counter, and adjusted to a density of 5 × 10^5 cells/mL. A volume of 25 µL of cell suspension was inoculated into each well. After inoculation, the cells were incubated at 37 °C in a 5% CO2 incubator for 18 h. • 3. Preparation of Compound Test Solution: The test compounds were diluted to the required concentrations (10 µM, 2 µM, 400 nM, 80 nM, 16 nM, 3.2 nM, and 0.64 nM) and added to a 384-well spiked plate. Since the cell culture plate already contained 25 µL of Fluo-4 NW assay reagent and the instrument was set to deliver 20 µL of the system, the compound concentrations in the spiked plate were 2.25 times the actual assay concentrations. For example, […]. • 4. Preparation of Assay Reagents: According to the instructions of the Fluo-4 NW Calcium Assay Kit (Thermo, F36206), 1 mL of assay buffer was added to Component B to prepare a 250 mM probenecid solution. 100 µL of the probenecid solution was added to 10 mL of assay buffer and mixed thoroughly. Component A was added to the mixture to prepare a 1X dye loading solution. • 5. Fluorescent Dye Addition: The complete culture medium was discarded, and 25 µL of the 1X dye loading solution was added to the 384-well plate using a Multidrop automatic dispenser. The plate was incubated at 37 °C for 30 min in the dark, then transferred to room temperature for an additional 30 min. The plate was transferred to the FLIPER Tetra instrument (Molecular Devices). • 6. Data Acquisition: After adding 20 µL of the compound test solution, the excitation wavelength was set to 470-495 nm, and the emission was detected at 515-575 nm. The instrument's quality control board was used to ensure no errors before initiating detection. The detection duration was 660 seconds, and the raw data were exported at the end of the reading. • 7. Data Processing: The change in fluorescence intensity, representing intracellular calcium signals, was calculated by subtracting the minimum fluorescence value (average of 14-21 seconds) from the maximum fluorescence value (average of 40-80 seconds) after compound addition. Using GraphPad Prism 8.0, the EC50 values of individual compounds were determined by plotting the compound concentration on the x-axis and the change in fluorescence intensity on the y-axis.

Series [2] deals with parathyroid hormone (PTH). Description: In vivo inhibition of blood PTH concentration in five-sixths nephrectomy hyperparathyroidism model rats (ELISA). Particulars: PTH reduction at 1 hour post-administration compared with baseline PTH concentration at 0 hour; single dose by oral gavage; male SD rats, five-sixths nephrectomy plus special diet. From the text:
Male SD rat models of hyperparathyroidism were constructed by five-sixths nephrectomy plus a special diet. Blood parathyroid hormone (PTH) level was used as the endpoint. ELISA was applied to determine the changes in plasma PTH concentration following compound treatment, thereby assessing the in vivo activity of the compound.
• 1. Model Construction: Specific pathogen-free (SPF)-grade male SD rats aged 7-8 weeks were used. The rats were acclimatized with normal feed for 1 week. Two-thirds of the left kidney was removed, and the rats were allowed to recover with normal feed for 1 week. Subsequently, the right kidney was removed, and the rats were allowed to recover with normal feed for an additional week. The rats were then fed a special diet (0.5% calcium and 1.2% total phosphorus) for 2 weeks. • 2. Detection and Grouping: Approximately 300 µL of blood was collected from the tail vein into a coagulation-promoting tube, left at room temperature for 30 minutes, and centrifuged at 12,000 rpm for 3 minutes to obtain serum samples. The concentration of intact PTH (1-84) in the serum was detected using the MicroVue Intact PTH EIA-96 Test (Quidel, catalog No. 60-2500). The rats were grouped based on their PTH concentration levels, ensuring that the mean PTH concentration in each group was approximately the same. • 3. Administration and Activity Testing: A single dose of the compound was administered by oral gavage. Blood samples were collected before and after administration, and serum was obtained using the method described in step 2. PTH levels were measured using ELISA.

Series [3] in a line: Rat liver microsome stability test. In kind it is in vitro ADME. Particulars: rat liver microsomes, PBS pH 7.4, 37 °C, maximum incubation time 60 minutes. Here is the method: Rat liver microsomes at a defined concentration, testosterone (positive control), tolbutamide (internal standard), the test compounds, and PBS (pH 7.4) were incubated at 37 °C. The reaction was quenched with methanol at 0, 5, 10, 20, 30, and 60 min, respectively. The samples were pretreated and analyzed using LC-MS. Data processing involved plotting the ratio of the peak area of the test compound to that of the internal standard (y-axis) against time (x-axis). The half-life (t1/2) was calculated from the data. Table 3. Stability data of compounds in rat liver microsomes.
Background: Liver microsomes are vesicles of endoplasmic reticulum, rich in cytochrome P450 enzymes.

Series [4] can be described thus: Pharmacokinetic study in SD rats. Format: in vivo. The settings on record: Sprague-Dawley, rat, plasma, male SD rats, single dose via oral gavage; for bioavailability: relative to Evocalcet (100). The protocol: Animal Information: Male Sprague-Dawley (SD) rats, aged 7-8 weeks, were used. Each group consisted of 3-5 rats.
Dosing Information: The rats were fasted for more than 12 hours prior to administration. A single dose was administered via oral gavage.
Blood Sampling Time Points: Blood samples were collected from the tail vein before administration and at 0.25, 0.5, 1, 2, 4, 6, 8, and 24 hours post-administration. A volume of 100 µL of blood was collected at each time point.
Sample Processing and Storage: The blood samples were transferred into 1.5 mL microcentrifuge tubes, with 50 µL per tube (two tubes per sample). Centrifugation was completed within 2 hours. Whole blood samples were kept on ice prior to centrifugation. Centrifugation was performed at 4000 rpm, 2-8°C, for 10 minutes. After collecting the supernatant, it was stored at -80°C or below if not analyzed immediately.
Column: An InfinityLab Poroshell 120 SB-C18 column (2.1 × 100 mm, 2.7 µm) was used. Column Temperature: The temperature was maintained at 30°C. Flow Rate: The flow rate was set at 0.3 mL/min. Run Time: The total run time was 9.5 minutes. Post-run Time: A post-run time of 2 minutes was applied. Injection Volume: An injection volume of 2 µL was used. Mobile Phase: A mixture of methanol and 0.1% formic acid was employed as the mobile phase. Gradient Elution: Gradient elution was performed according to the table below.
Blood Sample Processing: 50 µL of plasma sample was aliquoted, and 25 µL of internal standard solution was added. The mixture was vortexed for 30 seconds. Then, 175 µL of methanol was added to precipitate proteins, and the mixture was vortexed again. The samples were centrifuged at 12,000 rpm for 10 minutes. Subsequently, 100 µL of the supernatant was collected and mixed with 300 µL of water. The final supernatant was injected for analysis.

As to `C[C@@H](N[C@H]1CCN(c2cc(F)c(CC(=O)O)c(F)c2)C1)c1cccc2ccccc12` [Compound 5, 2-(2,6-difluoro-4-((S)-3-(((R)-1-(naphthalen-1-yl)ethyl)amino)pyrrolidin-1-yl)phenyl)acetic acid], the midpoint of the response in series [1], the EC50, lay at 39.8 nM. Also, in series [2], the “The reduction efficiency (%)” value was 81%. For the same molecule, in series [3], the half-life was above 1 h.

As for `Cc1cc(CC(=O)O)ccc1N1CC[C@H](N[C@H](C)c2cccc3ccccc23)C1` [Compound 3, 2-(3-methyl-4-((S)-3-(((R)-1-(naphthalen-1-yl)ethyl)amino)pyrrolidin-1-yl)phenyl)acetic acid], in series [1], a half-maximal effect (EC50) was put at 20.7 nM. Also, in series [2], the “The reduction efficiency (%)” value is on record as 93%. Moreover, the half-life in series [3] was above 1 h. Besides, in series [4], the bioavailability is 144%, the area under the curve AUC(0-inf) stood at 36600 ± 1970 ng·h/mL, the maximum concentration (Cmax) came out at 3770 ± 584 ng/mL and the time to peak (Tmax) amounted to 0.55 ± 0.27 h. In series [4], this molecule had a half-life of 5.17 ± 0.38 h.

In turn, `Cc1cc(N2CC[C@H](N[C@H](C)c3cccc4ccccc34)C2)ccc1CC(=O)O` [Compound 4, 2-(2-methyl-4-((S)-3-(((R)-1-(naphthalen-1-yl)ethyl)amino)pyrrolidin-1-yl)phenyl)acetic acid] registered an EC50 in series [1] of 52 nM.

In turn, `C[C@@H](N[C@H]1CCN(c2ccc(CC(=O)O)c(F)c2)C1)c1cccc2ccccc12` [Compound 1, 2-(2-fluoro-4-((S)-3-(((R)-1-(naphthalen-1-yl)ethyl)amino)pyrrolidin-1-yl)phenyl)acetic acid] had an EC50 in series [1] of 39.7 nM.

For `COc1cc(CC(=O)O)ccc1N1CC[C@H](N[C@H](C)c2cccc3ccccc23)C1` [Compound 6, 2-(3-methoxy-4-((S)-3-(((R)-1-(naphthalen-1-yl)ethyl)amino)pyrrolidin-1-yl)phenyl)acetic acid], in series [1], the EC50 was found to be 42.5 nM.

`C[C@@H](N[C@H]1CCN(c2ccc(CC(=O)O)cc2F)C1)c1cccc2ccccc12` [Compound 2, 2-(3-fluoro-4-((S)-3-(((R)-1-(naphthalen-1-yl)ethyl)amino)pyrrolidin-1-yl)phenyl)acetic acid] came in with an EC50 in series [1] of 27.1 nM. Moreover, the “The reduction efficiency (%)” value in series [2] turned out to be 91%. The molecule also displayed a half-life in series [3] above 1 h. In series [4], the bioavailability was 136%, the total exposure AUC(0-inf) stood at 34700 ± 2710 ng·h/mL, the highest concentration (Cmax) came to 3550 ± 283 ng/mL and the Tmax turned out to be 0.65 ± 0.34 h. The molecule also had a half-life in series [4] of 5.91 ± 0.21 h.

`COc1cc(N2CC[C@H](N[C@H](C)c3cccc4ccccc34)C2)ccc1CC(=O)O` [Compound 7, 2-(2-methoxy-4-((S)-3-(((R)-1-(naphthalen-1-yl)ethyl)amino)pyrrolidin-1-yl)phenyl)acetic acid] yielded a 50% effective concentration (EC50) in series [1] of 55.5 nM. That is a double-digit nanomolar value.

Take `C[C@@H](N[C@H]1CCN(c2ccc(CC(=O)O)cc2)C1)c1cccc2ccccc12` [Evocalcet, reference compound]: in series [1], a half-maximal effect (EC50) was put at 67.6 nM. The half-life in series [3] was above 1 h. In series [4], the bioavailability was 100%, the AUC(0-inf) was 25400 ± 7360 ng·h/mL, the concentration peaked (Cmax) at 2520 ± 212 ng/mL and the time to peak (Tmax) was 1.15 ± 1.6 h. This molecule also showed a half-life in series [4] of 4.83 ± 0.39 h.

For orientation: EC50 means the concentration that produces a half-maximal response. A low value points to greater potency. Broadly, the half-life is the time needed for the level to fall by half in the phase considered. High values mean slow decline, low ones rapid decline. The AUC(0-inf) is total exposure, with the tail of the curve extrapolated. A high value points to high exposure. The Cmax is the highest concentration seen after dosing. Usually Tmax stands for the time from dosing to the highest level.
